According to patent publication US20060287319A1, “Anti-viral compositions comprising heterocyclic substituted phenyl furans and related compounds” (priority 2005, published 2006):
Read-outs that look alike come from different tables or passages of the source.

Legend:
HIV-1 IIIB [1] = details: for EC50: read-out: EC50 (μM) (M ± SD) for inhibition of p24, HIV-1 IIIB, MT-2 cells
Protocol: Assessment of anti-HIV-1 infectivity. The inhibitory activity of compounds on infection by laboratory-adapted HIV-1 strains was determined as previously described (34). […] For the time-of-addition assay, compounds were added at various time post-infection. Then the culture supernatants were removed and fresh media were added. On the fourth day post-infection, 100 μl of culture supernatants were collected from each well, mixed with equal volumes of 5% Triton X-100 and assayed for p24 antigen, which was quantitated by ELISA (23). Briefly, the wells of polystyrene plates (Immulon 1B, Dynex Technology, Chantilly, Va.) were coated with HIV immunoglobulin (HIVIG), which was prepared from plasma of HIV-seropositive donors with high neutralizing titers against HIV-1IIIB as previously described (36) in 0.085 M carbonate-bicarbonate buffer (pH 9.6) at 4° C. overnight, followed by washes with PBS-T buffer (0.01M PBS containing 0.05% Tween-20) and blocking with PBS containing 1% dry fat-free milk (Bio-Rad Inc., Hercules, Calif.). Virus lysates were added to the wells and incubated at 37° C. for 1 h. […] Reactions were terminated by addition of 1N H2SO4. […] Recombinant protein p24 (US Biological, Swampscott, Mass.) was included for establishing standard dose response curve.

[2] = tested on: HIV-1IIIB infected H9 cells (H9/HIV-1IIIB) and MT-2 cells; experiment: HIV-1 mediated cell-cell fusion (dye transfer assay); type: cell-based; details: H9/HIV-1IIIB with MT-2 cells; read-out: EC50 (μM) (M ± SD) for inhibition of Cell fusion
Protocol: Inhibition of cell-cell fusion. A dye transfer assay was used for detection of HIV-1 mediated cell fusion as previously described (11,25,26). H9/HIV-1IIIB cells were labeled with a fluorescent reagent, Calcein-AM (Molecular Probes, Inc., Eugene, Oreg.) and then incubated with MT-2 cells (ratio=1:5) in 96-well plates at 37° C. for 2 hrs in the presence or absence of compounds tested. The fused and unfused Cacein-labeled HIV-1-infected cells were counted under an inverted fluorescence microscope (Zeiss, Germany) with an eyepiece micrometer disc. The percentage of inhibition of cell fusion and the IC50 values were calculated as previously described (11).

HIV-1 IIIB [3] = experiment: HIV-1-mediated cytopathic effect (CPE); type: cell-based; details: read-out: EC50 (μM) (M ± SD) for inhibition of CPE
Description: We thus purchased these compounds and tested their inhibitory activity on: 1) HIV-1 replication (p24 production); 2) HIV-1-mediated cytopathic effect (CPE); and 3) HIV-1 Env-induced cell-cell fusion; and their cytotoxicity to MT-2 cells.

MT-2 cells = tested on: MT-2 cells
Protocol: Detection of in vitro cytotoxicity. The in vitro cytotoxicity of compounds for MT-2 cells was measured by a colorimetric method using XTT tetrazolium dye as previously described (21). Briefly, 100 μl of a compound at a graded concentration was added to equal volume of cells (5×10^5/ml) in a well of 96-well plates. After incubation at 37° C. for 4 days, XTT (1 mg/ml; […]; PolySciences, Inc., Warrington, Pa.) was added. Four hours later, the soluble intracellular formazan was quantitated colorimetrically at 450 nm with a reference at 570 nm.

[4] = read-out: Cytotoxicity CC50 (μM) (M ± SD), MT-2 cells

| EC50 [2] | EC50 (HIV-1 IIIB [1]) | EC50 (HIV-1 IIIB [3]) | Compound | SI (CC50/EC50) (HIV-1 IIIB [1]) | CC50 (MT-2 cells) | SI (CC50/EC50) (HIV-1 IIIB [1]; selectivity index) | CC50 (MT-2 cells; [4]) |
| --- | --- | --- | --- | --- | --- | --- | --- |
|  |  |  | O=C(O)c1cccc(-c2ccc(/C=C3\SC(=S)N(Cc4ccco4)C3=O)o2)c1 [NB238] | >14.57 |  |  |  |
| 2.23 ± 0.082 µM | 0.943 ± 0.144 µM | 3.53 ± 0.738 µM | CCN1C(=O)/C(=C/c2ccc(-c3ccc(Cl)c(C(=O)O)c3)o2)SC1=S [NB214] | 47.5 | 44.8 ± 1.25 µM |  |  |
| > 100 µM | > 100 µM | > 100 µM | COC(=O)C(C)N1C(=O)S/C(=C\c2ccc(-c3cc(C(=O)O)ccc3C)o2)C1=O (stereo not shown) [NB237] |  | 67.7 ± 15 µM |  |  |
| > 100 µM | > 100 µM | > 100 µM | Cc1ccc(NC(=O)CN2C(=O)S/C(=C\c3ccc(-c4cccc(C(=O)O)c4C)o3)C2=O)cc1 [NB196] |  | > 336 µM |  |  |
| > 100 µM | > 100 µM | > 100 µM | Cc1ccc(NC(=O)CN2C(=O)S/C(=C\c3ccc(-c4ccc(Cl)c(C(=O)O)c4)o3)C2=O)cc1 [NB199] |  | > 322 µM |  |  |
| > 100 µM | > 100 µM | > 100 µM | Cc1ccc(NC(=O)CN2C(=O)S/C(=C\c3ccc(-c4cc(C(=O)O)ccc4Cl)o3)C2=O)cc1 [NB197] |  | > 341 µM |  |  |
| 33.2 ± 0.566 µM | 10.7 ± 3.09 µM | > 100 µM | COCCN1C(=O)/C(=C/c2ccc(-c3ccc(Cl)c(C(=O)O)c3)o2)SC1=S [NB201] | 11.08 | 118 ± 8.54 µM |  |  |
| > 100 µM | > 100 µM | > 100 µM | O=C(O)CN1C(=O)/C(=C/c2ccc(-c3cccc(C(=O)O)c3)o2)SC1=S [NB180] |  | > 411 µM |  |  |
| > 100 µM | 76.9 ± 3.52 µM | 50.3 ± 4.09 µM | O=C1NC(=S)S/C1=C\c1ccc(-c2ccc(Cl)c(C(=O)O)c2)o1 [NB185] | >5.68 | > 437 µM |  |  |
| 68.6 ± 1.83 µM | 1.13 ± 0.103 µM | 2.23 ± 0.515 µM | COc1ccc(CN2C(=O)/C(=C/c3ccc(-c4ccc(Cl)c(C(=O)O)c4)o3)SC2=S)cc1 [NB211] | 82.24 | 93.2 ± 4.41 µM |  |  |
| > 100 µM | > 100 µM | > 100 µM | Cc1c(C(=O)O)cccc1-c1ccc(/C=C2\SC(=S)N(CC(=O)O)C2=O)o1 [NB228] |  | > 397 µM |  |  |
| > 100 µM | > 100 µM | > 100 µM | O=C1NC(=S)S/C1=C\c1ccc(-c2cccc(C(=O)O)c2)o1 [NB184] | >28.93 | > 483 µM |  |  |
| 16.8 ± 0.457 µM | 0.323 ± 0.081 µM | 0.753 ± 0.081 µM | C=CCN1C(=O)/C(=C/c2ccc(-c3cccc(C(=O)O)c3)o2)SC1=S [NB183] | 537.83 | 174 ± 16.2 µM |  |  |
| > 100 µM | > 100 µM | > 100 µM | CN1C(=O)S/C(=C\c2ccc(-c3cc(C(=O)O)ccc3Cl)o2)C1=O [NB186] |  | > 440 µM |  |  |
| > 100 µM | > 100 µM | > 100 µM | C#CCN1C(=O)S/C(=C\c2ccc(-c3cc(C(=O)O)ccc3C)o2)C1=O [NB205] |  | > 435 µM |  |  |
| > 100 µM | > 100 µM | > 100 µM | O=C1NC(=S)S/C1=C\c1ccc(-c2cc(C(=O)O)ccc2Cl)o1 [NB190] |  | > 437 µM |  |  |
| 4.33 ± 0.078 µM | 0.984 ± 0.155 µM | 2.28 ± 0.389 µM | C=CCN1C(=O)/C(=C/c2ccc(-c3cccc(C(=O)O)c3C)o2)SC1=S [NB189] | >421.05 | > 414 µM |  |  |
| > 100 µM | > 100 µM | > 100 µM | CCC(C)N1C(=O)S/C(=C\c2ccc(-c3cc(C(=O)O)ccc3Cl)o2)C1=O (stereo not shown) [NB232] |  | > 394 µM |  |  |
| > 100 µM | > 100 µM | > 100 µM | Cc1ccc(C(=O)O)cc1-c1ccc(/C=C2\SC(=S)NC2=O)o1 [NB188] |  | 197 ± 13 µM |  |  |
| > 100 µM | > 100 µM | > 100 µM | O=C(O)CN1C(=O)/C(=C/c2ccc(-c3cc(C(=O)O)ccc3Cl)o2)SC1=S [NB235] |  | > 378 µM |  |  |
| 43.7 µM | 0.667 ± 0.174 µM | 3.86 ± 0.58 µM | CN1C(=O)/C(=C/c2ccc(-c3cccc(C(=O)O)c3)o2)SC1=S [NB151] | 187.17 | 125 ± 14.7 µM |  |  |
| > 100 µM | > 100 µM | > 100 µM | C#CCN1C(=O)S/C(=C\c2ccc(-c3cccc(C(=O)O)c3)o2)C1=O [NB216] |  | 55.3 ± 10 µM |  |  |
| 34.9 µM | 2.65 µM |  | COc1ccccc1N1C(=O)/C(=C/c2ccc(-c3cccc(C(=O)O)c3)o2)SC1=S [NB148] | >266.67 | > 368 µM |  |  |
|  | > 100 µM | > 100 µM | C=CCN1C(=O)/C(=C/c2ccc(-c3cc(C(=O)O)cc(C(=O)O)c3)o2)SC1=S [NB225] |  | > 386 µM |  |  |

| Compound | EC50 [2] | EC50 (HIV-1 IIIB [1]) | EC50 (HIV-1 IIIB [3]) | SI (CC50/EC50) (HIV-1 IIIB [1]) | CC50 (MT-2 cells) | SI (CC50/EC50) (HIV-1 IIIB [1]; selectivity index) | CC50 (MT-2 cells; [4]) |
| --- | --- | --- | --- | --- | --- | --- | --- |
| O=C(O)c1cccc(-c2ccc(/C=C3\SC(=S)N(c4cccc(F)c4)C3=O)o2)c1 [NB147] | > 100 µM | 10.4 ± 0.84 µM | > 100 µM |  |  | 8.85 | 92.3 ± 5.62 µM |
| O=C1/C(=C/c2ccc(-c3cccc(Cl)c3)o2)SC(=S)N1c1ccccc1 [NB239] | > 100 µM | > 100 µM | > 100 µM |  |  |  | > 402 µM |
| O=C(O)c1cc(-c2ccc(/C=C3\SC(=S)N(Cc4ccccc4)C3=O)o2)ccc1Cl [NB217] | 2.3 ± 0.131 µM | 0.767 ± 0.219 µM | 2.37 ± 0.657 µM |  |  |  |  |
| O=C(O)c1cc(-c2ccc(/C=C3\SC(=O)N(CC(=O)N4CCOCC4)C3=O)o2)ccc1Cl [NB202] | > 100 µM | > 100 µM | > 100 µM |  |  |  | > 336 µM |
| O=C(O)c1cc(-c2ccc(/C=C3\SC(=S)N(C4CCCCC4)C3=O)o2)ccc1Cl [NB219] | 4.3 ± 0.134 µM | 0.087 ± 0.04 µM | 0.401 ± 0.067 µM |  |  | 78.97 | 6.87 ± 0.29 µM |
| Cc1ccc(C(=O)O)cc1-c1ccc(/C=C2\SC(=O)N(c3ccccc3)C2=O)o1 [NB187] | > 100 µM | > 100 µM | > 100 µM |  |  |  | 363 ± 40.1 µM |
| O=C(O)c1cc(-c2ccc(/C=C3\SC(=S)N(c4ccc([N+](=O)[O-])cc4)C3=O)o2)ccc1Cl [NB222] | > 100 µM | > 100 µM | > 100 µM |  |  |  | > 328 µM |
| O=C(O)c1cc(-c2ccc(/C=C3\SC(=S)N(c4ccc(Cl)cc4)C3=O)o2)ccc1Cl [NB213] | 14.7 ± 0.599 µM | 0.514 ± 0.128 µM | 3.7 ± 1.01 µM |  |  | 181.04 | 93 ± 12.8 µM |
| O=C(O)c1cc(-c2ccc(/C=C3\SC(=O)N(Cc4ccccc4)C3=O)o2)ccc1Cl [NB192] | > 100 µM | > 100 µM | > 100 µM |  |  |  |  |
| Cc1ccc(N2C(=O)/C(=C/c3ccc(-c4cccc(C(=O)O)c4)o3)SC2=S)cc1 [NB230] | 3.08 ± 0.047 µM | 0.332 ± 0.095 µM | 2.16 ± 0.284 µM |  |  | 428.93 | 142 µM |
| O=C(O)c1cccc(-c2ccc(/C=C3\SC(=S)N(Cc4ccccc4)C3=O)o2)c1 [NB182] | 1.68 ± 0.142 µM | 0.83 ± 0.024 µM | 2.25 ± 1.14 µM |  |  |  |  |
| O=C(O)c1cc(-c2ccc(/C=C3\SC(=O)N(Cc4ccc(F)cc4)C3=O)o2)ccc1Cl [NB191] | > 100 µM | > 100 µM | > 100 µM |  |  |  | > 349 µM |
| O=C(O)c1cccc(-c2ccc(/C=C3\SC(=O)N(c4ccccc4)C3=O)o2)c1 [NB158] | > 100 µM | > 100 µM | > 100 µM |  |  |  | > 102 µM |
| Cc1cccc(N2C(=O)/C(=C/c3ccc(-c4cccc(C(=O)O)c4)o3)SC2=S)c1 [NB150] | 0.56 ± 0.05 µM | 0.308 ± 0.047 µM | 0.403 ± 0.119 µM |  |  | 125.69 | 38.7 ± 5.85 µM |
| O=C(O)c1cc(-c2ccc(/C=C3\SC(=S)N(Cc4ccc(F)cc4)C3=O)o2)ccc1Cl [NB208] | 6.668 ± 0.042 µM | 1.84 ± 0.654 µM | > 100 µM |  |  | 29.77 | 54.6 ± 15.3 µM |
